# Literature values, collected in patent US20230255891A1, “Highly Compactable and Durable Direct Compression Excipients and Excipient Systems” (SPI Pharma, Inc., priority 2009, published 2023).
# Legend:
# [1] = in water at 25
# [2] = for 80° C. Solubility Kilos/100 Kilo solution: spray liquid temperature; for solubility in water: at 80 C in solution
Compound,Solubility At 25 (g/100 g H2O) [1],80° C. Solubility Kilos/100 Kilo solution [2] [Kilos/100 Kilo solution],solubility in water [2]
OC[C@@H](O)[C@@H](O)CO [Erythritol],61 g/100 g H2O,,
O=C(CO)[C@@H](O)[C@H](O)[C@H](O)CO [Fructose],400 g/100 g H2O,,
OCC(O)CO [Glycerin],Soluble,,
OC[C@@H](O)[C@@H](O[C@@H]1O[C@H](CO)[C@H](O)[C@H](O)[C@H]1O)[C@H](O)[C@@H](O)CO [Lactitol Monohydrate],140 g/100 g H2O,,
Anhydrous Isomalt,39 g/100 g H2O,,
Isomalt,,71,

# Continued, values first:
Solubility At 25 (g/100 g H2O) [1],80° C. Solubility Kilos/100 Kilo solution [2] [Kilos/100 Kilo solution],solubility in water [2],Compound
,82,,OC[C@@H](O)[C@@H](O[C@@H]1O[C@H](CO)[C@H](O)[C@H](O)[C@H]1O)[C@H](O)[C@@H](O)CO [Lactitol]
175 g/100 g H2O,80.5,about 80%,OC[C@@H](O)[C@@H](O[C@H]1O[C@@H](CO)[C@@H](O)[C@@H](O)[C@H]1O)[C@H](O)[C@@H](O)CO [Maltitol]
22 g/100 g H2O,47.3,about 47%,OC[C@@H](O)[C@@H](O)[C@H](O)[C@H](O)CO [Mannitol]
235 g/100 g H2O,92,about 92%,OC[C@@H](O)[C@@H](O)[C@H](O)[C@@H](O)CO [Sorbitol]
185 g/100 g H2O,,,OC[C@H]1O[C@@](CO)(O[C@H]2O[C@H](CO)[C@@H](O)[C@H](O)[C@H]2O)[C@@H](O)[C@@H]1O [Sucrose]
200 g/100 g H2O,,,OC[C@@H](O)[C@H](O)[C@@H](O)CO [Xylitol]
